Laboratory results from patent US11478451B1, “Macrocyclic chlorine substituted indole derivatives” (Bayer Aktiengesellschaft, priority 2017, dated 2022).
Where a name gives a salt, the structure may show the parent alone. Read-outs that look alike come from different tables or passages of the source.

Assays:
[1] = system: SUDHL10 cells; assay: Induction of caspase-3/7 activity (Caspase-Glo 3/7), SUDHL10; type: cell-based; details: EC50, median, SUDHL10, 3 h treatment
In short: (§1)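 Read-out: Caspase-Glo 3/7 signal, background-corrected against medium-only wells, taken after cells had been incubated with compounds for 3 h at 37 °C.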

[2] = system: AMO-1 cells; assay: Antiproliferation assay (CellTiter-Glo, 72 h), AMO-1; type: cell-based; details: IC50, median, AMO-1, 72 h, read-out: Antiproli AMO-1 [M] median
In short: (§2)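 Treated cells sat 72 h in a humidified 37 °C incubator, outer wells unused, before CellTiter-Glo reagent and a 10 min wait preceded luminescence reading; identical measurement of a parallel day 0 plate defined time zero.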

[3] = system: HMC-1-8 cells; assay: Antiproliferation assay (CellTiter-Glo, 72 h), HMC-1-8; type: cell-based; details: IC50, median, HMC-1-8, 72 h, read-out: Antiproli HMC-1-8 [M] median
In short: as §2

[4] = system: SNU-389 cells; assay: Antiproliferation assay (CellTiter-Glo, 72 h), SNU-389; type: cell-based; details: 72 h; read-out: Antiproli SNU-389 [M] median
Description: (§3) Assessment of the Anti-Proliferative Effect of Compounds in Different Cell Lines
(§4) The impact of compounds on the proliferation of different cell lines was assessed using the CellTiter-Glo® Luminescent Cell Viability reagent from Promega (G7573).
(§5) In parallel, cells were plated in a reference (day 0) plate for time zero determination.
(§6) Rim wells were excluded. The cells were incubated for 72 h hours in a humidified incubator at 37° C. The day 0 plate was measured by adding 30 μL/well of CTG solution (CellTiter-Glo® Luminescent Cell Viability reagent, Promega G7573) to time zero wells in the reference plate followed by a 10 minutes incubation and luminescence reading at 0.1 ms. using the PHERAstar FS microplate reader (BMG Labtech).
(§7) After 72 h incubation, the treated plates were measured in the same way as the day 0 plate mentioned above.

[5] = system: DMS-114 cells; assay: Antiproliferation assay (CellTiter-Glo, 72 h), DMS-114; type: cell-based; details: Homo sapiens, DMS-114, 72 h; read-out: Antiproli DMS-114 [M] median
Description: as §3, §4, §5, §6, §7

[6] = system: SUDHL5 cells; assay: Induction of cytotoxicity (CellTiter-Glo, 5 h), SUDHL5; details: SUDHL5, 5 h
[7] = system: SUDHL10 cells; assay: Induction of cytotoxicity (CellTiter-Glo, 5 h), SUDHL10; details: SUDHL10, 5 h
[8] = system: SUDHL5 cells; assay: Induction of caspase-3/7 activity (Caspase-Glo 3/7), SUDHL5; type: cell-based; details: EC50, median, SUDHL5, 3 h treatment
In short: as §1

[9] = system: SUDHL5 cells; assay: Antiproliferation assay (CellTiter-Glo, 72 h), SUDHL5; type: cell-based; details: IC50, median, SUDHL5, 72 h, read-out: Antiproli SUDHL5 [M] (median)
In short: as §2

[10] = system: MV-4-11 cells; assay: Antiproliferation assay (CellTiter-Glo, 72 h), MV-4-11; type: cell-based; details: IC50, median; MV-4-11, 72 h; read-out: Antiproli MV-4-11 [M] median
Description: as §3, §4, §5, §6, §7

[11] = Homo sapiens, SU-DHL10, 5 h, read-out: Cytotox SUDHL10 [M] (median), IC50, median
[12] = read-out: Cytotox SUDHL5 [M] (median), IC50, median
[13] = read-out: Cytotox SUDHL10 [M] (median), IC50, median

Row | EC50 ([1]; Homo sapiens, SU-DHL10, 3 h) [nM] | IC50 [4] [M] | IC50 [9] [M] | Compound | IC50 ([2]; Homo sapiens, AMO1, 72 h) [M] | IC50 ([3]; 72 h) [M] | IC50 [5] [M] | IC50 [2] [M] | further results
1 | 150 | 1.09e-06 |  | CCc1nn(C)c2c1-c1c(Cl)ccc3c(CCCOc4cccc5cc(F)ccc45)c(C(=O)O)n(c13)CCCCN(C)C2 (racemic) [Example 39, (rac)-4-chloro-3-ethyl-7-{3-[(6-fluoronaphthalen-1-yl)oxy]propyl}-1,14-dimethyl-10,11,12,13,14,15-hexahydro-1H-pyrazolo[3′,4′:8,9][1,6]diazacycloundecino[10,11,1-hi]indole-8-carboxylic acid] | 2.4e-07 | 3.3e-06 | 6.38e-07 |  | IC50 ([6]; Homo sapiens, SU-DHL-5, 5 h, read-out: Cytotox SUDHL5 [M] (median), IC50, median): 1.5e-07 M; IC50 [7, 11]: 2.4e-07 M
2 | 210 | 1.52e-06 |  | Cc1c2c(nn1C)COCCn1c(C(=O)O)c(CCCOc3cccc4ccccc34)c3ccc(Cl)c-2c31 (racemic) [Example 87, (rac)-11-chloro-9,10-dimethyl-1-{3-[(naphthalen-1-yl)oxy]propyl}-4,5,7,9-tetrahydropyrazolo[4′,3′:7,8][1,4]oxazonino[6,5,4-hi]indole-2-carboxylic acid] | 3.8e-07 | 4.7e-06 | 1.32e-06 |  | EC50 ([8]; Homo sapiens, SU-DHL-5, 3 h): 170 nM; IC50 ([9]; Homo sapiens, SU-DHL-5, 72 h): 5.5e-07 M; IC50 [7, 11]: 2.6e-07 M
3 | 220 | 6.96e-07 |  | CCc1c2c(nn1C)CN(C)CCCCn1c(C(=O)O)c(CCCOc3cccc4cc(F)ccc34)c3ccc(Cl)c-2c31 (single isomer, unassigned; enantiomer 1) [Example 6, 4-chloro-3-ethyl-7-{3-[(6-fluoronaphthalen-1-yl)oxy]propyl}-2,14-dimethyl-10,11,12,13,14,15-hexahydro-2H-pyrazolo[3′,4′:8,9][1,6]diazacycloundecino[10,11,1-hi]indole-8-carboxylic acid (Enantiomer 1)] |  | 3.4e-06 | 4.97e-07 | 2.4e-07 | IC50 [6, 12]: 1.5e-07 M; IC50 [7, 13]: 3.6e-07 M
4 | 180 | 1.7e-06 |  | CCc1c2c(nn1C)CN(C)CCCCn1c(C(=O)O)c(CCCOc3cccc4ccccc34)c3ccc(Cl)c-2c31 (single isomer, unassigned; enantiomer 1) [Example 23, 4-chloro-3-ethyl-2,14-dimethyl-7-[3-(naphthalen-1-yloxy)propyl]-10,11,12,13,14,15-hexahydro-2H-pyrazolo[3′,4′:8,9][1,6]diazacycloundecino[10,11,1-hi]indole-8-carboxylic acid (Enantiomer 1)] | 6.1e-07 | 5.2e-06 | 2.06e-06 |  | 
5 | 330 | 1.05e-06 |  | CCc1c2c(nn1C)COCCCCn1c(C(=O)O)c(CCCOc3cccc4cc(F)ccc34)c3ccc(Cl)c-2c31 (single isomer, unassigned; enantiomer 1) [Example 37, (+)-4-chloro-3-ethyl-7-{3-[(6-fluoronaphthalen-1-yl)oxy]propyl}-2-methyl-2,10,11,12,13,15-hexahydropyrazolo[4′,3′:9,10][1,6]oxazacycloundecino[8,7,6-hi]indole-8-carboxylic acid-N-ethylethanamine salt (Enantiomer 1)] | 3.6e-07 | 1.6e-06 | 1.12e-06 |  | IC50 [7, 11]: 4.3e-07 M
6 |  | 1.23e-06 | 3.4e-07 | Cc1c2c(nn1C)COCC(F)(F)CCn1c(C(=O)O)c(CCCOc3cccc4ccccc34)c3ccc(Cl)c-2c31 (single isomer, unassigned; enantiomer 1) [Example 56, 4-chloro-12,12-difluoro-2,3-dimethyl-7-{3-[(naphthalen-1-yl)oxy]propyl}-2,10,11,12,13,15-hexahydropyrazolo[4′,3′:9,10][1,6]oxazacycloundecino[8,7,6-hi]indole-8-carboxylic acid-N-ethylethanamine salt—Enantiomer 1] |  |  | 7.79e-07 | 4.4e-07 | EC50 [8]: 130 nM; EC50 [1]: 310 nM; IC50 [3]: 3.3e-06 M; IC50 [6, 12]: 2.2e-07 M; IC50 [7, 13]: 3.3e-07 M
7 |  | 3.85e-07 |  | CCc1c2c(nn1C)CN(CCC1CCOCC1)CCCCn1c(C(=O)O)c(CCCOc3cccc4cc(F)ccc34)c3ccc(Cl)c-2c31 (single isomer, unassigned; enantiomer 1) [Example 136, 4-chloro-3-ethyl-7-{3-[(6-fluoronaphthalen-1-yl)oxy]propyl}-2-methyl-14-[2-(oxan-4-yl)ethyl]-10,11,12,13,14,15-hexahydro-2H-pyrazolo[3′,4′:8,9][1,6]diazacycloundecino[10,11,1-hi]indole-8-carboxylic acid N-ethylethanamine salt (Enantiomer 1)] |  | 7.3e-07 | 2.35e-07 |  | 
8 |  | 5.56e-07 | 1.5e-07 | CCc1nn(C)c2c1-c1c(Cl)ccc3c(CCCOc4cccc5cc(F)ccc45)c(C(=O)O)n(c13)CCCCN(C)C2 (single isomer, unassigned; enantiomer 2) [Example 41, 4-chloro-3-ethyl-7-{3-[(6-fluoronaphthalen-1-yl)oxy]propyl}-1,14-dimethyl-10,11,12,13,14,15-hexahydro-1H-pyrazolo[3′,4′:8,9][1,6]diazacycloundecino[10,11,1-hi]indole-8-carboxylic acid (Enantiomer 2)] |  | 7e-07 | 3.65e-07 | 5.4e-07 | 
9 |  | 4.97e-07 |  | CCc1c2c(nn1C)CN(CCOC)CCCCn1c(C(=O)O)c(CCCOc3cccc4cc(F)ccc34)c3ccc(Cl)c-2c31 (single isomer, unassigned; enantiomer 2) [Example 133, 4-chloro-3-ethyl-7-{3-[(6-fluoronaphthalen-1-yl)oxy]propyl}-14-(2-methoxyethyl)-2-methyl-10,11,12,13,14,15-hexahydro-2H-pyrazolo[3′,4′:8,9][1,6]diazacycloundecino[10,11,1-hi]indole-8-carboxylic acid N-ethylethanamine salt (Enantiomer 2)] |  | 1e-06 | 3.85e-07 |  | 
10 |  | 1.18e-06 | 1.9e-07 | CCc1c2c(nn1C)COCC(O)CCn1c(C(=O)O)c(CCCOc3cccc4cc(F)ccc34)c3ccc(Cl)c-2c31 (stereo not shown) [Example 100, 4-chloro-3-ethyl-7-{3-[(6-fluoronaphthalen-1-yl)oxy]propyl}-12-hydroxy-2-methyl-2,10,11,12,13,15-hexahydropyrazolo[4′,3′:9,10][1,6]oxazacycloundecino[8,7,6-hi]indole-8-carboxylic acid-N-ethylethanamine salt] |  |  | 1.85e-07 | 6.7e-07 | EC50 [8]: 220 nM; EC50 [1]: 120 nM; IC50 [3]: 5e-06 M; IC50 [6, 12]: 1.8e-07 M; IC50 [7, 13]: 1.8e-07 M

Row | Compound | EC50 ([1]; Homo sapiens, SU-DHL10, 3 h) [nM] | IC50 [4] [M] | IC50 [9] [M] | IC50 ([2]; Homo sapiens, AMO1, 72 h) [M] | IC50 ([3]; 72 h) [M] | IC50 [5] [M] | IC50 [2] [M] | further results
11 | Cc1c2c(nn1C)COCCCCn1c(C(=O)O)c(CCCOc3cccc4ccccc34)c3ccc(Cl)c-2c31 (single isomer, unassigned; enantiomer 2) [Example 27, 4-chloro-2,3-dimethyl-7-[3-(naphthalen-1-yloxy)propyl]-2,10,11,12,13,15-hexahydropyrazolo-[4′,3′:9,10][1,6]oxazacycloundecino[8,7,6-hi]indole-8-carboxylic acid-N-ethylethanamine salt (Enantiomer 2)] |  |  | 7.8e-06 |  |  |  |  | IC50 [10]: 1.61e-05 M
